Source: US8496963B2, “Oral formulations of glycyl-2-methylprolyl-glutamate” (priority 2007, dated 2013)
Like-named read-outs stand apart in the source and are kept apart here. Bridge positions count the residues as written; N and C are the ends. Square brackets hold non-standard residues; d marks the D form. Peptide text beside a SMILES is read from it. * marks the point of attachment. Ileψ(thiazoline)Cys = CC[C@H](C)[C@H](N)C1=N[C@H](C(=O)*)CS1; αMeP = C[C@@]1(C(=O)O)CCCN1; dOrn = NCCC[C@@H](N)C(=O)O

Legend:
[1] = system: Caco-2 cells; format: in vitro ADME, human
Description: The purpose of these studies was to determine the effect of pH on the degradation of G-2MePE by Caco-2 cells.
100 μg/ml G-2MePE was added to the apical side of confluent cultures of Caco-2 cells in different pH conditions. Samples were taken at 0, 15, 30, 45, 60, 90, 120, 150, 180, 210, 240 min later. Samples were centrifuged at 20,000 g for 15 min and 50 μl supernatant was injected to the column of HPLC. […] Peptidolytic activity and half-life of G-2MePE were then determined in different pH condition.

[2] = system: Caco-2 cells; experiment: Cytotoxicity: sulforhodamine B (SRB) growth inhibition of Caco-2 cells; details: read-out: IC50 of G-2MePE, growth of Caco-2 cells
Description: (§1) The purpose of this study growth was to determine if GPE and/or G-2MePE can inhibit growth of cells.
(§2) The cells were fixed by TCA and SRB was added to each well. Cell-bound dye was extracted with Tris base buffer to solubilize the dye and the absorbance determined by a plate reader at 570 nm. Inhibition of growth was expressed as relative viability (% control) and the IC50 was calculated from the concentration-response curves after log/probit transformation.

[3] = system: Caco-2 cells; format: in vitro ADME, human; details: Caco-2, pH 7.4
Description: Fresh medium was replaced every 2-3 days. Cells were cultured at 37° C. for 12-14 days for uptake assay study. The uptake assay study was commenced after cells reached confluency, i.e., after 12-14 days in culture. Each dish was washed with HEPES (pH 7.4). […] The cells were scraped off with a cell scraper into an extraction solution and centrifuged at 20,000 g for 20 min. […] The pellet was diluted by NaOH to determine the protein content by Lowry assay.

[4] = system: Caco-2 cell monolayer; experiment: Stability of GPE and G-2MePE in the presence of Caco-2 cells; format: in vitro ADME, human; details: 50-100 μg/ml, HBSS pH 7.4, HPLC
Description: The collected samples were extracted by adding 400 μl of 0.04M sulphuric acid into test tubes, each of which contained 50 μl of a sample. The test tubes were left on ice for 5 min and vortexed. The 50 μl of 10% sodium tungstate was added to each tube and the tubes were vortexed immediately and left on ice for 10 min, vortexed again and left on ice for another 10 min. The cells were centrifuged at 20,000 g at 4° C. for 20 min. The supernatant was collected for testing. […] The protein content of samples was measured by Lowry assay.

[5] = system: Caco-2 cells
Description: as §1, §2

[6] = in vitro; details: human, Caco-2
Description: as §1, §2

[7] = system: Caco-2 epithelial membrane; experiment: Permeability of G-2MePE and TEER across Caco-2 cells with permeation enhancers; format: in vitro ADME, human
Description: The purpose of this study was to determine if permeability enhancers can increase transport of G-2MePE across Caco-2 cell layers.
G-2MePE was added in three or six replicates to the donor sides of Transwells containing Caco-2 cells in the absence or presence of various permeation enhancers (FIG. 4), 1.5 ml transport buffer was added to the receptor side. The Transwells were then left to incubate. […] After each sample was taken, 0.4 ml of fresh HBSS buffer was added to the side of the Transwell from which sample was taken. Subsequently, 0.1 ml donor solution was collected to measure the concentration of the intact G-2MePE. Following each sampling, 0.1 ml of G-2MePE at the same concentration was replaced.
Peptidolysis was terminated by adding the same volume of HCl (0.2M) to each sample. […] Supernatants were collected, dried by Speed Vacuum, diluted with mobile phase and analysed by spectrofluorophotometer. […] Transepthelial electric resistance (TEER) was measured using a Millipore voltage meter at different time points.

[8] = system: Caco-2 epithelial cell layer; experiment: Permeability of fluorescein and TEER across Caco-2 cells with permeation enhancers; format: in vitro ADME, human
Description: The purpose of this study was to determine the appearance permeation coefficient (Papp) and transepithelial electrical resistance (TEER) across confluent cultures of Caco-2 epithelial cells caused by a typical hydrophilic material.
Integrity of Caco-2 cell cultures was assessed by measuring the TEER and the leakage of ^14C-mannitol or fluorescein across confluent cultures. Inserts with confluent cell cultures and an electrical resistance of greater than 300 Ω/cm^2, were considered appropriate for these studies. Fluorescein or 0.5 μCi/50 μl of ^14C-mannitol was added to the apical cell and incubated for 1-4 hours. The acceptable leakage was considered to be <0.5-1%. 6 inserts with good integrity were chosen and then washed with transport buffer. The medium from all apical and basolateral wells was removed. The cell cultures were washed twice with warm 37° C. transport buffer.
The solution on the transwell receptor side was then replaced with 0.4 ml of fresh HBSS, and we collected 0.1 ml from the donor side (then replaced with 0.1 ml sodium fluorescein at the same concentration). The reaction was terminated from donor side by adding the same volume HCl (0.2M) or by 3:1 Acetonitril/methonal with 2% acetic acid to each sample. […] Supernatants were collected, dried by Speed Vacuum, diluted with mobile phase and the resulting sample was analysed by spectrofluorophotometer. The apparent permeability coefficient was used to compare the permeability between control and treatment groups (FIG. 4). Transepithelial electric resistance (TEER) was measured using a Millipore voltage meter at different time points.

With `C[C@@]1(C(=O)N[C@@H](CCC(=O)O)C(=O)O)CCCN1C(=O)CN` [Formulation G-2MePE, Glycyl-2-Methylprolyl Glutamate] (H-Gly-[αMeP]-Glu-OH) as the compound, how does the “pH at which G-2MePE is stable” value ([1]; Caco-2) read?
The value was no more than 5.5.

And the “degradation in basic conditions” value ([1]; Caco-2, pH 7)?
The value was “Moderate degradation”.

What about the IC50 ([2]; 24 hours) of the same compound?
Its IC50 is 4640 µM.

And the IC50 ([2]; 48 hours)?
The IC50 was 3660 µM.

And the IC50 ([2]; 72 hours)?
Its IC50 is 2240 µM.

What about the IC50 ([2]; 96 hours) of the same compound?
The IC50 was 1090 µM.

What about the IC50 ([2]; 120 hours) of the same compound?
Its IC50 is 1010 µM.

What about the “uptake of G-2MePE by Caco-2 cells” value [3] of the same compound?
Its value is 1.3%.

Which “metabolites identified in the presence of Caco-2 cells” value [4] does the source give for `NCC(=O)N1CCC[C@H]1C(=O)N[C@@H](CCC(=O)O)C(=O)O` [GPE, glycyl-prolyl-glutarnate] here?
Its value is “Four”.

What about the IC50 [5] of the same compound?
Its IC50 is no less than 15000 µM.

And the inhibition at 15 mM [6]?
Its inhibition at 15 mM is 35%.

For `CCCCCCCCCC(=O)[O-].[Na+]` [Sodium caprate], which “permeability of the Caco-2 epithelial membrane to G-2MePE” value ([7]; EDTA 30 mM, sodium caprate 20 mM, taurocholate 20 and 30 mM, citric acid 30 mM, bacitracin 3.5 mM) is on record?
The value was “significantly increased”.

And the “TEER of Caco-2 cell layer” value ([7]; G-2MePE transport, EDTA 30 mM, sodium caprate 20 mM, taurocholate 20 & 30 mM, citric acid 30 mM)?
Its value is “significantly reduced”.

And the “relative effect on fluorescein permeability” value ([8]; 20 mM caprate vs 20 mM taurocholate)?
The value was “greater than the effect of the same concentration of taurocholate”.

What about the “TEER of Caco-2 cell layer” value ([8]; fluorescein transport experiment, 3 h, sodium caprate 10 or 20 mM, taurocholate 30 mM, EDTA 40 mM, SDA 1 mM) of the same compound?
Its value is “reduced the TEER”.

What about the “permeability of the Caco-2 epithelial cell layer to fluorescein” value ([8]; sodium caprate 10 or 20 mM, taurocholate 30 mM, EDTA 40 mM, SDA 1 mM, 3 h) of the same compound?
The value was “significantly (P<0.05) increased”.

Which “permeability of the Caco-2 epithelial membrane to G-2MePE” value ([7]; Caco-2) does the source give for `CC[C@H](C)[C@H](N)C1=N[C@H](C(=O)N[C@@H](CC(C)C)C(=O)N[C@H](CCC(=O)O)C(=O)N[C@H](C(=O)N[C@H]2CCCCNC(=O)[C@H](CC(N)=O)NC(=O)[C@@H](CC(=O)O)NC(=O)[C@H](Cc3cnc[nH]3)NC(=O)[C@@H](Cc3ccccc3)NC(=O)[C@H]([C@@H](C)CC)NC(=O)[C@@H](CCCN)NC2=O)[C@@H](C)CC)CS1` [bacitracin] ({Ileψ(thiazoline)Cys}-L[dE]IK[dOrn]I[dF]H[dD]N; lactam 4-C) here?
Its value is “significantly increased”.
